Laboratory results reported in the supplement of paper PMC10307832.

Compound: CCCS(=O)(=O)Nc1ccc(F)c(C(=O)c2c[nH]c3ncc(-c4ccc(Cl)cc4)cc23)c1F [Vemurafenib] + CCNC(=O)c1noc(-c2cc(C(C)C)c(O)cc2O)c1-c1ccc(CN2CCOCC2)cc1 [Luminespib] (partner 0.01 µM)
Assay: relative viability (nuclei count vs DMSO), 5 days (fraction); higher = more cells survive
Summary of the method: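 A single step with final 0.05% Triton X-100, 1% formaldehyde and 1 ug/ml Hoechst fixed the cells and stained nuclei 5 days after treatment. Lung cancer cell lines in 1536-well plates had been treated by pin tool the day after seeding with one drug alone or a fixed anchor-drug dose plus five library-drug doses (not always all listed) in √10 steps, and nuclei were counted on 4× images. Relative viability is the ratio of nuclei in treated wells to nuclei in vehicle wells, taken as the median of duplicate plates.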

Work on UMC-11 yielded a relative viability (first compound 0.03162 µM) of 0.916, a relative viability (first compound 0.1 µM) of 0.991 and a relative viability (first compound 0.3162 µM) of 0.984. The relative viability (first compound 1 µM) was 0.941.
